Data on 7 compounds can be found in ChEMBL document CHEMBL1138127, “Conversion of potent MMP inhibitors into selective TACE inhibitors” (Bioorg Med Chem Lett, 2006).

Experiment [1] has as its target Disintegrin and metalloproteinase domain-containing protein 17 (Homo sapiens, UniProt P78536). The experiment is described as follows: Inhibitory activity against TACE.
For the next experiment, the target named is T1, Interstitial collagenase (Homo sapiens, UniProt P03956).
T1 sequence (P03956 whole entry): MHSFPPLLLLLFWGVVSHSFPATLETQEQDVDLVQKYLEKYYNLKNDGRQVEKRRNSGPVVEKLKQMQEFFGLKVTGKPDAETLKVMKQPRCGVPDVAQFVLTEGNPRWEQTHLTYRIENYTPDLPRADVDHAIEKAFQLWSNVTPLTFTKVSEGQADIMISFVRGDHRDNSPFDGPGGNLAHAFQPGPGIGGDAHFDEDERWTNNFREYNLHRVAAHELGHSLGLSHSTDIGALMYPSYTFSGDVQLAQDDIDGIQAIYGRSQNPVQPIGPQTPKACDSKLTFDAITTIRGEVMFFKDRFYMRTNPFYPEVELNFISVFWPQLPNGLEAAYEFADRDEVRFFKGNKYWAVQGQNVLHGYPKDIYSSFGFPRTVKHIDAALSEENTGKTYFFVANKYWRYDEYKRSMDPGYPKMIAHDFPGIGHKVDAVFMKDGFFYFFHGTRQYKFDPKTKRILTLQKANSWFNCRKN
The experiment is described as follows: Binding affinity to MMP1.

Experiment [2] addresses 72 kDa type IV collagenase (Homo sapiens, UniProt P08253). The experiment is described as follows: Binding affinity to MMP2.
The target in experiment [3] is Matrix metalloproteinase-9 (Homo sapiens, UniProt P14780). The experiment is described as follows: Binding affinity to MMP9.
Chain of Matrix metalloproteinase-9 (P14780 whole entry): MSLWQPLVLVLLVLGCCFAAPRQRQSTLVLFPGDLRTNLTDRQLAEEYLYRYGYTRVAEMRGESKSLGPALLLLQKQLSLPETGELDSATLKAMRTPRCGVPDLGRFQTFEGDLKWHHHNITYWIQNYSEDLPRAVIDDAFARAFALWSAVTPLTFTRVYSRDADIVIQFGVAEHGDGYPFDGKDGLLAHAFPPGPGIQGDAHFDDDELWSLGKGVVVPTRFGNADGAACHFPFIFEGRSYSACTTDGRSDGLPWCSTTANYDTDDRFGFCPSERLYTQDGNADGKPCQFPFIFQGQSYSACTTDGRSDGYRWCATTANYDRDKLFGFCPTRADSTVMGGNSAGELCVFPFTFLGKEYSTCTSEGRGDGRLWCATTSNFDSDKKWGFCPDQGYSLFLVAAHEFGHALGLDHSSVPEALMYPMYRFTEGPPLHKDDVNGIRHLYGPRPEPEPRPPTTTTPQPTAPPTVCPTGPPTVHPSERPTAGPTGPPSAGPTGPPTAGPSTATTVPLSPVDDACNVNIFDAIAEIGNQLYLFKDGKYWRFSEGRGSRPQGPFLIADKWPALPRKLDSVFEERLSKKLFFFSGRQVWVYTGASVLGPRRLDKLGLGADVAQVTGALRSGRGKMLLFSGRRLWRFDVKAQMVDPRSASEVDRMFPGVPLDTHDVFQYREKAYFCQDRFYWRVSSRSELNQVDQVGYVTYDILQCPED
The next experiment has as its target Collagenase 3 (Homo sapiens, UniProt P45452). The experiment is described as follows: Binding affinity to MMP13.

Chain of 72 kDa type IV collagenase (P08253 whole entry): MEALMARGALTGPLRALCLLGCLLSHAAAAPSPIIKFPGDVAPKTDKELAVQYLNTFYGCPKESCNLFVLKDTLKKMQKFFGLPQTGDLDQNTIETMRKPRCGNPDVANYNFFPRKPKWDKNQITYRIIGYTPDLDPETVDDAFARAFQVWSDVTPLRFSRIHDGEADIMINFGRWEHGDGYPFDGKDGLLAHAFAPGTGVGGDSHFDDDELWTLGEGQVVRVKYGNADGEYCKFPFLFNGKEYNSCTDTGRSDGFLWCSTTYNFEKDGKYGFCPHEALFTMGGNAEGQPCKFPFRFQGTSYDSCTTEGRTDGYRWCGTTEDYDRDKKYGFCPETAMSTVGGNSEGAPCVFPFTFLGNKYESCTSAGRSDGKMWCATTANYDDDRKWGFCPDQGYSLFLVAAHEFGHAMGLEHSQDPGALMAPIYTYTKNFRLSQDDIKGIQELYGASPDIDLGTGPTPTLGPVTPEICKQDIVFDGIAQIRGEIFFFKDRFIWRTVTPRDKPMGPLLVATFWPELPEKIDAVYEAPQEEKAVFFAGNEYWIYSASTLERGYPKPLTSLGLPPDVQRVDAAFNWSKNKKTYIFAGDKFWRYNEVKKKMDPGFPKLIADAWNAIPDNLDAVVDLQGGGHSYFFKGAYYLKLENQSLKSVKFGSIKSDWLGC
Chain of Disintegrin and metalloproteinase domain-containing protein 17 (P78536 whole entry, the tested form may be a part): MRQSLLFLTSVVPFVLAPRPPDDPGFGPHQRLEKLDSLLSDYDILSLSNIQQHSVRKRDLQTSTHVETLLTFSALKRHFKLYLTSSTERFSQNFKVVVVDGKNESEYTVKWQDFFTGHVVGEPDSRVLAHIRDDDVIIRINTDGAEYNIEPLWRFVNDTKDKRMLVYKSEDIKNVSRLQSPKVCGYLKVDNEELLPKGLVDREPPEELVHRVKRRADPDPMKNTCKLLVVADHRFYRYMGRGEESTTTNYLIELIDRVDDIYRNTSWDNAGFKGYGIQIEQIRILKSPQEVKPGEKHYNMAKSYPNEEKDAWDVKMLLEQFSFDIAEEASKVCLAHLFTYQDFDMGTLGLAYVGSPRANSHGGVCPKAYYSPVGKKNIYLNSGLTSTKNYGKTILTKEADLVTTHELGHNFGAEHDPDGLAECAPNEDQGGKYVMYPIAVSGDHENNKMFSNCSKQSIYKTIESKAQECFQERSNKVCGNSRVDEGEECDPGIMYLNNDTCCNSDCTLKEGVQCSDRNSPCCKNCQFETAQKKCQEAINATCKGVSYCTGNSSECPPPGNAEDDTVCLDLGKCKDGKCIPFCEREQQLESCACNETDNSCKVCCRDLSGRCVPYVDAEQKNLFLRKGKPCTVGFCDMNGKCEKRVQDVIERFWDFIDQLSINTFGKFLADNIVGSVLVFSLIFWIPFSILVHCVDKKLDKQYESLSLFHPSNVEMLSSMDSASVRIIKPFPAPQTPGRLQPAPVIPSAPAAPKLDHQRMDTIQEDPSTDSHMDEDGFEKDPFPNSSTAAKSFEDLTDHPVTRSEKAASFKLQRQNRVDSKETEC

The IC50 is the point on the concentration scale where inhibition reaches its midpoint. A word on the Ki: it is the dissociation constant of the complex between target and ligand, obtained from inhibition or displacement. Higher therefore signals a looser hold on the target. In turn, `COc1ccc(-c2ccc(CN3C(C(=O)NO)CCS3(=O)=O)cc2)cc1` (configuration not stated) displayed a 50% inhibitory concentration (IC50) in experiment [1] of more than 1 µM. This compound yielded an inhibitory constant (Ki) on Interstitial collagenase of more than 4.95 µM.

The compound `Cc1cc(COc2ccc(N3C(C(=O)NO)CCCS3(=O)=O)cc2)c2ccccc2n1` (configuration not stated) came in with an IC50 in experiment [1] of 0.0037 µM. The inhibition constant (Ki) at Interstitial collagenase was more than 4.95 µM; in experiment [2] it was more than 3.33 µM; in experiment [3], more than 2.13 µM; at Collagenase 3 it was more than 5.03 µM.

Take `Cc1cc(COc2ccc(CC3C(C(=O)NO)CCS3(=O)=O)cc2)c2ccccc2n1` (configuration not stated): the IC50 in experiment [1] turned out to be 0.15 µM. The inhibition constant Ki at Interstitial collagenase was more than 4.95 µM; in experiment [2], more than 3.33 µM; in experiment [3] it was more than 2.13 µM; on Collagenase 3, more than 5.03 µM.

`Cc1cc(COc2ccc(N3C(C(=O)NO)CCS3(=O)=O)cc2)c2ccccc2n1` (configuration not stated) gave an IC50 in experiment [1] of 0.0059 µM. Also, the Ki on Interstitial collagenase was more than 4.95 µM; in experiment [2], more than 3.33 µM; in experiment [3], more than 2.13 µM; at Collagenase 3 it was more than 5.03 µM.

In experiment [1], `Cc1cc(COc2ccc(CN3C(C(=O)NO)CCS3(=O)=O)cc2)c2ccccc2n1` (configuration not stated) showed an IC50 of 0.9 µM. Further, the inhibitory constant (Ki) at Interstitial collagenase is more than 4.95 µM; in experiment [2] it was more than 3.33 µM; in experiment [3], more than 2.13 µM; on Collagenase 3, more than 5.03 µM.

In experiment [1], `Cc1cc(COc2ccc(CCN3C(C(=O)NO)CCS3(=O)=O)cc2)c2ccccc2n1` (configuration not stated) gave an IC50 of 0.48 µM. In addition, the Ki at Interstitial collagenase was more than 4.95 µM; in experiment [2], more than 3.33 µM; in experiment [3] it was more than 2.13 µM; at Collagenase 3, more than 5.03 µM.

`Cc1cc(COc2ccc(N3C(C(=O)NO)CNS3(=O)=O)cc2)c2ccccc2n1` (configuration not stated) gave a half-inhibitory concentration (IC50) in experiment [1] of 0.0083 µM. Further, the Ki is more than 4.95 µM on Interstitial collagenase, more than 3.33 µM in experiment [2], more than 2.13 µM in experiment [3] and more than 5.03 µM at Collagenase 3.
